Results as given in publication PMC11653702, “Targeting the SPC25/RIOK1/MYH9 Axis to Overcome Tumor Stemness and Platinum Resistance in Epithelial Ovarian Cancer” (Advanced Science, 2024).
Blank lines part the entries; values can stand above or below the compound they belong to.

Tests used:
[1] = biological target: casein kinase II (CKII); assay: Inhibition of endogenous CKII kinase activity; type: cell-based, human; settings: OVCAR3 and OVCAR8 cells
Description: (§1) Western Blotting: Western blotting was performed using primary antibodies detailed in Table S5 (Supporting Information). Western blotting grayscale analyses were performed using ImageJ (version 2.0.0; NIH, Bethesda, MD, USA). β-Catenin expression was quantified by determining the gray level of each band using Image J and normalized using α-tubulin.

[2] = test system: MYH9 phosphorylation at Ser1943; assay: Western blotting, phosphorylation of MYH9 at Ser1943 under CX-4945, OVCAR3 and OVCAR8; type: cell-based, human; settings: CX-4945 6 μM, OVCAR3 and OVCAR8 cells with SPC25 overexpression or silencing
Description: as §1
Figure S6. A) Exogenous IP assays performed to assess Ser/Thr phosphorylation status of MYH9-Myc in HEK293FT cells with or without SPC25-Flag expression. B) Quantification of nuclear or cellular fluorescence of reexpressed GFP-MYH9-WT with NLS2-2A and NLS2-3A mutants in MYH9-silenced OVCAR3 cells with or without SPC25 overexpression. C) qRT-PCR of MYH9 in OVCAR8 and SKOV3 cells with exogenous expression of MYH9 mutant variants. D) qRT-PCR of MYH9 in MYH9-silenced OVCAR3 and OVCAR8 cells with reexpression of MYH9-WT or MYH9-S1943A. E) qRT-PCR of CTNNB1 in MYH9-silenced OVCAR8 cells with reexpression of MYH9-WT or MYH9-S1943A under SPC25 silencing (left). TOP/FOP Flash analysis in MYH9-silenced OVCAR8 cells with reexpression of MYH9-WT or MYH9-S1943A under SPC25 silencing (right). F) Endogenous phosphorylation status of MYH9 at Ser1943 in OVCAR3 and OVCAR8 cells under escalating doses of CX-4945 examined through Western blotting. […]

[3] = test system: OVCAR3 cells; assay: Tumor sphere formation, XAV939, SPC25-overexpressing OVCAR3; type: cell-based, human; settings: for negative ratio / number of negative wells: XAV939 100uM, 24 wells
[4] = test system: COV644 cells; assay: Tumor sphere formation, XAV939, SPC25-overexpressing COV644; type: cell-based, human; settings: for Log(negative ratio, 2) / negative ratio / number of negative wells: XAV939 100uM, 24 wells
[5] = test system: patients with EOC; design: method as in 2 sources, ref 59 = [59]; PMID 22204724; doi:10.1056/NEJMoa1104390; 59 R. A. Burger , M. F. Brady , M. A. Bookman , G. F. Fleming , B. J. Monk , H. Huang , R. S. Mannel , H. D. Homesley , J. Fowler , B. E. Greer , M. Boente , M. J. Birrer , S. X. Liang , G. G. Oncolog ||| ref 61, 62, 63 = [61]; PMID 25481791; doi:10.1016/S1470-2045(14)71135-0; 61 A. M. Oza , D. Cibula , A. O. Benzaquen , C. Poole , R. H. Mathijssen , G. S. Sonke , N. Colombo , J. Spacek , P. Vuylsteke , H. Hirte , S. Mahner , M. Plante , B. Schmalfeldt , H. Mackay , J. Rowb || [62]; PMID 34485111; doi:10.3389/fonc.2021.638295; 62 N. Ren , L. Zhang , J. Yu , S. Guan , X. Dai , L. Sun , M. Ying , Front. Oncol. 2021 , 11 , 638295 . 34485111 10.3389/fonc.2021.638295 PMC8414886 || [63]; PMID 27663600; doi:10.1158/1078-0432.CCR-16-1546; 63 J. M. Lee , C. J. Peer , M. Yu , L. Amable , N. Gordon , C. M. Annunziata , N. Houston , A. K. Goey , T. M. Sissung , B. Parker , L. Minasian , V. L. Chiou , R. F. Murphy , B. C. Widemann , W. D. F; settings: cited from earlier work; for PFS or OS during chemotherapy: PARP inhibitors during chemotherapy; for maintenance treatment benefit for patient survival: PARP inhibitors, maintenance treatment of EOC

kinase activity of endogenous CKII [1]: completely inhibited
Compound: O=C(O)c1ccc2c(c1)nc(Nc1cccc(Cl)c1)c1ccncc12 [CX-4945]
SPC25-mediated promotion of MYH9 phosphorylation at Ser1943 [2]: persisted

Compound: Oc1nc(-c2ccc(C(F)(F)F)cc2)nc2c1CSCC2 [XAV939]
enhanced stemness attributable to SPC25 overexpression (tumor sphere formation) ([3]; SPC25-overexpressing OVCAR3): effectively mitigated the enhanced stemness
negative ratio ([3]; OVCAR3-SPC25, 50 cells): 1
number of negative wells ([3]; OVCAR3-SPC25, 50 cells): 24
negative ratio ([3]; OVCAR3-SPC25, 100 cells): 1
number of negative wells ([3]; OVCAR3-SPC25, 100 cells): 24
negative ratio ([3]; OVCAR3-SPC25, 200 cells): 0.9167
number of negative wells ([3]; OVCAR3-SPC25, 200 cells): 22
negative ratio ([3]; OVCAR3-SPC25, 400 cells): 0.875
number of negative wells ([3]; OVCAR3-SPC25, 400 cells): 21
negative ratio ([3]; OVCAR3-SPC25, 800 cells): 0.8333
number of negative wells ([3]; OVCAR3-SPC25, 800 cells): 20
negative ratio ([3]; OVCAR3-Vector, 50 cells): 1
number of negative wells ([3]; OVCAR3-Vector, 50 cells): 24
negative ratio ([3]; OVCAR3-Vector, 100 cells): 1
number of negative wells ([3]; OVCAR3-Vector, 100 cells): 24
negative ratio ([3]; OVCAR3-Vector, 200 cells): 0.9583
number of negative wells ([3]; OVCAR3-Vector, 200 cells): 23
negative ratio ([3]; OVCAR3-Vector, 400 cells): 0.9167
number of negative wells ([3]; OVCAR3-Vector, 400 cells): 22
negative ratio ([3]; OVCAR3-Vector, 800 cells): 0.8333
number of negative wells ([3]; OVCAR3-Vector, 800 cells): 20
enhanced stemness attributable to SPC25 overexpression (tumor sphere formation) ([4]; SPC25-overexpressing COV644): effectively mitigated the enhanced stemness
Log(negative ratio, 2) ([4]; COV644-SPC25, 50 cells): 0
negative ratio ([4]; COV644-SPC25, 50 cells): 1
number of negative wells ([4]; COV644-SPC25, 50 cells): 24
Log(negative ratio, 2) ([4]; COV644-SPC25, 100 cells): 0
negative ratio ([4]; COV644-SPC25, 100 cells): 1
number of negative wells ([4]; COV644-SPC25, 100 cells): 24
number of negative wells ([4]; COV644-SPC25, 200 cells): 23
number of negative wells ([4]; COV644-SPC25, 400 cells): 23
number of negative wells ([4]; COV644-SPC25, 800 cells): 21
Log(negative ratio, 2) ([4]; COV644-Vector, 50 cells): 0
negative ratio ([4]; COV644-Vector, 50 cells): 1
number of negative wells ([4]; COV644-Vector, 50 cells): 24
Log(negative ratio, 2) ([4]; COV644-Vector, 100 cells): 0
negative ratio ([4]; COV644-Vector, 100 cells): 1
number of negative wells ([4]; COV644-Vector, 100 cells): 24
Log(negative ratio, 2) ([4]; COV644-Vector, 200 cells): 0
negative ratio ([4]; COV644-Vector, 200 cells): 1
number of negative wells ([4]; COV644-Vector, 200 cells): 24
number of negative wells ([4]; COV644-Vector, 400 cells): 23
number of negative wells ([4]; COV644-Vector, 800 cells): 22

Compound: NC(=O)c1cccc2cn(-c3ccc([C@@H]4CCCNC4)cc3)nc12 [niraparib]
PFS or OS during chemotherapy [5]: marginal PFS or OS enhancements
maintenance treatment benefit for patient survival [5]: marked benefits

Compound: O=C(c1cc(Cc2n[nH]c(=O)c3ccccc23)ccc1F)N1CCN(C(=O)C2CC2)CC1 [olaparib]
PFS or OS during chemotherapy [5]: marginal PFS or OS enhancements
maintenance treatment benefit for patient survival [5]: marked benefits

Compound: bevacizumab: biological agent combined with platinum-based regimens
PFS prolongation ([5]; added to platinum-based regimens, recurrent patients with EOC, compared with controls): 3–4 months
